Test results as given in PubChem BioAssay (NCI).
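Assay format: 96-well plates, 48-hour exposure. GI50 marks 50% less growth. At the TGI there is no net growth.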

How the values were obtained:
Assay in all cases: NCI anticancer screen, dose series, 48 h
CAKI-1 renal = system: CAKI-1 renal
ACHN renal = system: ACHN renal
HCT-15 colon = system: HCT-15 colon
SNB-19 CNS = system: SNB-19 CNS
A549 NSCLC = system: A549 NSCLC
OVCAR-4 ovarian = system: OVCAR-4 ovarian
TK-10 renal = system: TK-10 renal
UO-31 renal = system: UO-31 renal
786-0 renal = system: 786-0 renal
HCC-2998 colon = system: HCC-2998 colon

| SMILES | TGI (CAKI-1 renal) [µM] | TGI (ACHN renal) [µM] | TGI (HCT-15 colon) [µM] | TGI (SNB-19 CNS) [µM] | TGI (A549 NSCLC) [µM] | TGI (OVCAR-4 ovarian) [µM] | TGI (TK-10 renal) [µM] | TGI (UO-31 renal) [µM] | TGI (786-0 renal) [µM] | TGI (HCC-2998 colon) [µM] | GI50 (CAKI-1 renal) [µM] | GI50 (ACHN renal) [µM] | GI50 (HCT-15 colon) [µM] | GI50 (SNB-19 CNS) [µM] | GI50 (A549 NSCLC) [µM] | GI50 (OVCAR-4 ovarian) [µM] | GI50 (TK-10 renal) [µM] | GI50 (UO-31 renal) [µM] | GI50 (786-0 renal) [µM] | GI50 (HCC-2998 colon) [µM] |
| --- | --- | --- | --- | --- | --- | --- | --- | --- | --- | --- | --- | --- | --- | --- | --- | --- | --- | --- | --- | --- |
| COc1cc2c3c(c1OC)C(=O)C=C3N(S(=O)(=O)c1ccc(C)cc1)CC2 | > 100 | > 100 | > 100 | > 100 | > 100 | > 100 | > 100 | > 100 | > 100 | > 100 | – | – | – | – | – | – | – | – | – | – |
| CN1CCN(CCCOc2cccc3nc(Nc4ccc(F)c(F)c4)ccc23)CC1 | 9.35 | 9.17 | 3.42 | 10.2 | 8.15 | 15.2 | 6.94 | 9.01 | 9.25 | 9.08 | 4.45 | 4.57 | 0.956 | 4.89 | 3.5 | 6.42 | 2.63 | 4.34 | 4.66 | 4.56 |
| CCc1nc2cc(/C=C/C(=O)NO)ccc2c(=O)n1CCc1ccc(OC)cc1 | 10.7 | 4.36 | > 100 | 21.4 | 15.1 | 58.7 | 5.79 | 5.13 | 6.28 | 62.1 | 2.98 | 1.85 | 3.24 | 3.21 | 3.56 | 2.96 | 1.6 | 1.5 | 2.31 | 4.06 |
| COc1cc(CN(c2ccc(C)cc2)C2OC(=O)c3ccccc32)cc(OC)c1OC (stereo not given) | > 100 | > 100 | > 100 | > 100 | > 100 | > 100 | > 100 | > 100 | > 100 | > 31.2 | 0.472 | 3.21 | 0.568 | 0.689 | 0.584 | 2.93 | 2.51 | 2.7 | 0.691 | 0.877 |
| COc1cccc(NC(=O)c2sc3nc4c(cc3c2N)C(O)CCC4)c1 (stereo not given) | > 100 | > 100 | > 100 | > 93.2 | > 100 | > 100 | > 100 | > 100 | > 100 | > 100 | 0.538 | 0.956 | 0.0856 | 2.12 | 0.287 | 0.775 | 46.8 | 0.607 | 0.503 | 0.347 |
| CC1=C(C#N)C(/C=C(\Cl)c2ccc(F)cc2)C(C#N)=C(C)N1 | > 100 | > 100 | > 100 | > 100 | > 100 | > 100 | > 100 | > 100 | > 100 | > 100 | > 100 | > 100 | > 100 | > 100 | > 100 | > 100 | > 100 | > 100 | > 100 | > 100 |
| OC(COc1ccccc1)CN1CCCCC1 (stereo not given) | > 100 | > 100 | > 100 | > 100 | > 100 | > 100 | > 100 | > 100 | > 100 | > 100 | – | – | – | – | – | – | – | – | – | – |
| COc1ccc(-c2n[nH]nc2-c2cc(OC)c3c(c2)OCO3)cc1 | 58.5 | > 100 | > 36.2 | > 100 | > 100 | > 100 | > 100 | 73 | 28.5 | 2.4 | 0.0237 | 0.0648 | < 0.01 | 0.0441 | 0.0239 | 1.25 | 15.7 | 0.0505 | 0.0423 | 0.069 |
| COc1ccc2c(c1)CCc1c(CO)c(COC(=O)NC(C)C)n(C)c1-2 | 77.8 | 53.1 | 60.8 | 56.1 | > 78.5 | 53.5 | > 100 | 19.6 | > 100 | 51.5 | – | – | – | – | – | – | – | – | – | – |
| COC(=O)N/N=C(\C)C(CN(C)C)C(c1ccccc1)c1c(O)c2ccccc2oc1=O (stereo not given) | > 100 | > 100 | > 100 | > 100 | > 100 | > 100 | > 100 | > 100 | > 100 | > 100 | – | – | – | – | – | – | – | – | – | – |
| CC[C@@H](O)C[C@H]1CCC[C@@]2(C[C@@H]3OC(=O)/C=C/[C@@](C)(O)[C@@H](O)[C@H](C)[C@@H](O)[C@H](OC4CCC(N(C)C)C(C)O4)[C@@H](O)[C@](C)(O)CCCCC/C=C/[C@@H]4CC(C)(C)O[C@@]4(O)C[C@H](O2)[C@H]3C)O1 (stereo not given in full) | 20.2 | 17.6 | 29.2 | 20.6 | 20.5 | 25.7 | 21.6 | 18.1 | 34.1 | 17.5 | – | – | – | – | – | – | – | – | – | – |
| COc1ccc2c(c1)[n+](=O)c(C(=O)CC(=O)C(=O)Nc1cccc(C)c1C)c(C)n2[O-] | > 100 | > 100 | > 100 | > 100 | > 100 | > 100 | > 100 | > 100 | > 100 | > 100 | – | – | – | – | – | – | – | – | – | – |
| COc1ccc(-c2nsc3c2NC(=O)CC3c2cccc(Cl)c2)cc1 (stereo not given) | 70.1 | > 100 | > 100 | > 100 | > 100 | > 100 | > 100 | > 100 | > 100 | > 100 | 0.981 | 7.5 | 0.646 | 5.44 | 0.987 | 7.62 | 3.48 | 5.22 | 9.39 | 11.5 |
| Nc1ccccc1C(=O)NC(=O)Nc1ccc(Oc2ncc(Br)cn2)c(Cl)c1 | 1.72 | 30.8 | 22.6 | 14.7 | 13.4 | 10.2 | 13.8 | 9.03 | 3.58 | 0.19 | – | – | – | – | – | – | – | – | – | – |
| CC(=O)OC1C(O[C@H]2CC[C@]34O[C@]35CC[C@]3(C)C(C6(C)CC[C@@H](C(C)(C)O)O6)[C@@H](O)CC3(C)[C@@H]5CC(OC3OC(CO)C(O)C(O)C3O)C4C2(C)C)OCC(O)C1O (stereo not given in full) | > 100 | > 100 | > 57.8 | > 100 | > 100 | > 100 | > 100 | > 100 | > 60.9 | > 100 | – | – | – | – | – | – | – | – | – | – |
